The text below walks through data of ChEMBL document CHEMBL1135023, “A lipophilic thioflavin-T derivative for positron emission tomography (PET) imaging of amyloid in brain” (Bioorg Med Chem Lett, 2002).

pKi: −log10 of the molar value.

Series [1] in a line: Octanol-water partition at pH 7.4. The class given is physicochemical.
Series [2] deals with Mus musculus. The series can be described thus: Compound was tested in vivo for mouse brain uptake after 30 min; Mouse brain uptake per g. The class given is functional, organism-based.
Series [3] can be described thus: In vitro binding using synthetic aggregated Abeta(1-40) fibrils.
The nature of series [4]: Ratio of 2-30 min mouse brain uptakes per g was determined. Type of series: functional.
Series [5] deals with Mus musculus. The series can be described thus: Compound was tested in vivo for mouse brain uptake after 2 min; Mouse brain uptake per g. Type of series: functional, organism-based.

`CNc1ccc(-c2nc3ccc(C)cc3s2)cc1` returned a logD in series [1] of 3.4. Further, the results for the ID/g in the series on Mus musculus [2] and with Mus musculus [5] were 2.8% and 7.6%, respectively. This compound also gave a pKi in series [3] of 8.00. The Ratio in series [4] was found to be 2.7.

For `Cc1ccc2c(c1)sc(-c1ccc(N(C)C)cc1)[n+]2C`, the logD in series [1] was 0.57.

The compound `CNc1ccc(-c2nc3ccccc3s2)cc1` came in with a log distribution coefficient (logD) in series [1] of 2.7. For the same compound, the ID/g in the series with Mus musculus [2] is 1.7%; in the series on Mus musculus [5], 12.9%.

As usually defined, the logD is lipophilicity at a set pH, counting ionised and neutral species. Read a low logD as lower lipophilicity. By pKi is commonly meant −log10 of the Ki, conventionally taken in molar units.
